What follows are cell lines tested with Cc1ccc(NC(=O)c2ccc(CN3CCN(C)CC3)cc2)cc1Nc1nc(-c2cccnc2)cs1 [Masitinib] + CC(=O)c1c(C)c2cnc(Nc3ccc(N4CCNCC4)cn3)nc2n(C2CCCC2)c1=O [Palbociclib] (partner 0.5 µM) (assay: relative viability (nuclei count vs DMSO), 5 days (fraction); higher = more cells survive). Conditions: first compound 0.01 µM.
Procedure, shortened: (§1)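 Lung cancer cell lines, seeded in 1536-well plates, were treated the following day by pin tool with a single drug or with five library-drug doses (not always all listed) in √10 steps on top of a fixed anchor-drug dose. Cells were fixed and nuclei stained in one step after 5 days, and nuclei were counted. Relative viability is the nuclei count for treated wells divided by that for vehicle wells, reported as medians of duplicate plates.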

Row | Cell Line | relative viability
1 | NCI-H2170 | 0.383
2 | NCI-H1993 | 0.674
3 | SK-LU-1 | 0.431
4 | ABC-1 | 0.699
5 | SK-MES-1 | 0.306
6 | NCI-H661 | 0.331
7 | RERF-LC-KJ | 1.05

Same assay, conditions: first compound 0.03162 µM

Row | Cell Line | relative viability
8 | NCI-H2170 | 0.331
9 | NCI-H1993 | 0.527
10 | SK-LU-1 | 0.362
11 | ABC-1 | 0.855
12 | SK-MES-1 | 0.269
13 | NCI-H661 | 0.374
14 | RERF-LC-KJ | 1.02

Same assay, conditions: first compound 0.1 µM

Row | Cell Line | relative viability
15 | NCI-H2170 | 0.438
16 | NCI-H1993 | 0.536
17 | SK-LU-1 | 0.373
18 | ABC-1 | 0.784
19 | SK-MES-1 | 0.318
20 | NCI-H661 | 0.363
21 | RERF-LC-KJ | 1.09

Same assay, conditions: first compound 0.3162 µM

Row | Cell Line | relative viability
22 | NCI-H2170 | 0.403
23 | NCI-H1993 | 0.516
24 | SK-LU-1 | 0.405
25 | ABC-1 | 0.598
26 | SK-MES-1 | 0.302
27 | NCI-H661 | 0.372
28 | RERF-LC-KJ | 1.21

Same assay, conditions: first compound 1 µM

Row | Cell Line | relative viability
29 | NCI-H2170 | 0.417
30 | NCI-H1993 | 0.654
31 | SK-LU-1 | 0.416
32 | ABC-1 | 0.661
33 | SK-MES-1 | 0.336
34 | NCI-H661 | 0.377
35 | RERF-LC-KJ | 0.938

These cell lines were tested with Cc1ccc(NC(=O)c2ccc(CN3CCN(C)CC3)cc2)cc1Nc1nc(-c2cccnc2)cs1 [Masitinib] + O=C(c1cc(Cc2n[nH]c(=O)c3ccccc23)ccc1F)N1CCN(C(=O)C2CC2)CC1 [Olaparib] (partner 8 µM) in the same assay as above. Conditions: first compound 0.01 µM.
Procedure, shortened: as §1

Row | Cell Line | relative viability
36 | NCI-H2170 | 0.546
37 | NCI-H1993 | 1.13
38 | SK-LU-1 | 0.419
39 | ABC-1 | 0.727
40 | SK-MES-1 | 0.775
41 | NCI-H661 | 0.722
42 | RERF-LC-KJ | 0.935

Same assay, conditions: first compound 0.03162 µM

Row | Cell Line | relative viability
43 | NCI-H2170 | 0.698
44 | NCI-H1993 | 0.876
45 | SK-LU-1 | 0.486
46 | ABC-1 | 1.39
47 | SK-MES-1 | 0.761
48 | NCI-H661 | 0.779
49 | RERF-LC-KJ | 0.916

Same assay, conditions: first compound 0.1 µM

Row | Cell Line | relative viability
50 | NCI-H2170 | 0.672
51 | NCI-H1993 | 1.19
52 | SK-LU-1 | 0.436
53 | ABC-1 | 0.844
54 | SK-MES-1 | 0.798
55 | NCI-H661 | 0.802
56 | RERF-LC-KJ | 0.978

Same assay, conditions: first compound 0.3162 µM

Row | Cell Line | relative viability
57 | NCI-H2170 | 0.576
58 | NCI-H1993 | 1.1
59 | SK-LU-1 | 0.524
60 | ABC-1 | 0.67
61 | SK-MES-1 | 0.629
62 | NCI-H661 | 0.731
63 | RERF-LC-KJ | 0.672

Same assay, conditions: first compound 1 µM

Row | Cell Line | relative viability
64 | NCI-H2170 | 0.559
65 | NCI-H1993 | 1.01
66 | SK-LU-1 | 0.497
67 | ABC-1 | 0.78
68 | SK-MES-1 | 0.653
69 | NCI-H661 | 0.711
70 | RERF-LC-KJ | 0.852

Reference: the supplement of paper PMC10307832
